The values that follow come from PMC11760092, “Pretreatment with serine protease inhibitors impairs Leishmania amazonensis survival on macrophages” (Parasites & Vectors, 2025).

Where two headings read alike, the source gives them in different places. Bounds are passed on as bounds.

A short description of data set [1]: Cytotoxicity assay (MTT). The data set is classed as cell-based, BALB/c mice. Conditions: BALB/c, mouse. As to the method: To determinate the toxicity of the inhibitors on mammalian cells, peritoneal macrophages from BALB/c mice, obtained by peritoneal lavage, in concentration of 2 × 10^6 macrophages/mL, were adhered in 96-well culture plates overnight at 37 °C with 5% CO2. The inhibitors were then added in different concentrations and incubated for 72 h at 37 °C and 5% CO2. Cell viability was also assessed by the MTT method. Cytotoxic concentration of 50% of macrophages (CC50) values were calculated using GraPadPrism 8 software. Three independent experiments in triplicate were performed.

The test system of data set [2] is Leishmania amazonensis-WT promastigotes. The experiment in a line: Antipromastigote assay (MTT). The data set is classed as cell-based. As to conditions: 72 h of incubation; interval in brackets; read-out: Antileishmanial effect in Leishmania amazonensis IC50 Promastigote. As to the method: Leishmania amazonensis–WT promastigotes, in the logarithmic phase of growth, were transferred to 96-well culture plates (final concentration 2 × 10^6 cells/mL) and exposed to different concentrations of inhbitors during 72 h at 25 °C. The cell viability was evaluated by the 3-(4,5-dimethylthiazol-2-yl)-2,5 diphenyltetrazolium bromide (MTT) method (obtained from Sigma-Aldrich). The inhibitory concentration of 50% of parasite growth (IC50) values were calculated using GraphPad Prism 8 software […]. Three independent experiments in triplicate were performed. Amphotericin B (Cristália, São Paulo, SP, Brazil) was used as a reference drug.

In data set [3] the test system is L. amazonensis (RFP) amastigotes. The experiment in a line: Antiamastigote assay (RFP fluorescence, infected peritoneal macrophages). The data set is classed as cell-based. Conditions: Leishmania amazonensis, Peritoneal macrophage; 72 h of incubation; interval in brackets; read-out: Antileishmanial effect in Leishmania amazonensis IC50 Amastigote. Here is the method:
Peritoneal macrophages from BALB/c mice were obtained by peritoneal lavage and distributed in 24-well plates at 2 × 10^6 cells/mL in RPMI medium (Cultilab) containing 10% FBS and a 0.5% penicillin and streptomycin solution (complete RPMI). The plates were incubated for 1 h at 37 °C and 5% CO2, washed with phosphate-buffered saline (PBS), and then reincubated in complete RPMI medium overnight. The cells were washed again with PBS and infected with stationary growth phase L. amazonensis (RFP) promastigotes at a 10:1 ratio for 4 h at 33 °C. The plates were washed with PBS and the inhibitors were added at different concentrations and incubated for 72 h. After this time, each well was scraped to remove attached cells and the reading was taken with a spectrofluorimeter (FLx800, BioTek Instruments, Winooski, VT, USA) at 530 nm and 590 nm of excitation and emission, respectively. […] All assays were performed in triplicate and repeated three times. Results were calculated as the percentage of amastigote survival compared with the nontreated control group, and IC50 values were determined using GraphPad Prism 8 software.

The test system of data set [4] is Leishmania amazonensis-RFP promastigotes. As to the kind of experiment: Viability of promastigotes after 1 h of treatment with inhibitors. The data set is classed as cell-based. Conditions: 1 h treatment, washed; 0 h, 24 h, 48 h and 72 h of incubation. Here is the method:
Leishmania amazonensis-RFP promastigotes were treated with different concentrations of inhibitors during 1 h at 25 °C and were washed with PBS. Then, these cells had their viability determined by fluorescence analysis using a spectrofluorimeter (time = 0 h) and were also reincubated in complete RPMI medium for subsequent analysis of cell viability after 24 h, 48 h, and 72 h (times = 24 h, 48 h, and 72 h) by fluorescence analysis.

Data set [5] has as its system L. amazonensis in peritoneal macrophages. The experiment in a line: Promastigote pretreatment and infection of peritoneal macrophages. The data set is classed as cell-based, Leishmania amazonensis. As to conditions: for entry of promastigotes into macrophages: promastigotes pretreated 1 h, 0 h after 4 h interaction. Here is the method:
(§1) Leishmania amazonensis-RFP promastigotes were pretreated with different concentrations of inhbitors during 1 h at 25 °C. The cells were washed with PBS and used to infect peritoneal macrophages from BALB/c mice (10:1 ratio), not pretreated or pretreated with 0.5 ng/mL IFN-γ overnight, in 24-well plates. After 4 h of interaction, the plates were washed with PBS and (1) scraped to remove attached cells and read using a spectrofluorimeter (time = 0 h) or (2) incubated at 33 °C with 5% CO2 for 24 h, 48 h, and 72 h for later scraping and reading (times = 24 h, 48 h, and 72 h). Three experiments were performed, each one with three replicates.
The same experiment was repeated, but using 13 mm glass coverslips in 24-well plates. The fixation with ethanol and staining with Giemsa were performed. Subsequently, the slides were examined in an optical microscope (Olympus BX53, Shinjuku, Tokyo, Japan) and photographed (Olympus DP73, Shinjuku, Tokyo, Japan).

For data set [6], the system named is L. amazonensis promastigotes. Set-up: method as in PMID 17726617. As to conditions: 1 mM; 24 h, 48 h and 72 h of treatment; cited from earlier work.
Data set [7] relates to L. donovani serine proteases. Further details: method as in PMID 26040107. Conditions: cited from earlier work.
Data set [8] deals with L. donovani promastigotes. Further details: method as in PMID 26040107. As to conditions: aprotinin 1 µM, benzamidine 1 mM; after 5 h, 10 h, 15 h and 20 h of incubation; cited from earlier work.
The test system of data set [9] is L. donovani in RAW 264.7 cells. Set-up: method as in PMID 26040107. Conditions: promastigotes pretreated 2 h; cited from earlier work.
Data set [10] has as its system L. amazonensis serine proteases. As to the kind of experiment: Enzymatic assay on promastigote lysate with substrate ABZ-V-F-R-S-L-K-Q EDDnp. The class given is biochemical, Leishmania amazonensis. Conditions: first 10 min. As to the method: The enzymatic assay was conducted in a final volume of 200 µL per well, containing 1 µM of substrate, supernatant of lysate of 3.7 × 10^6 parasites, 2.5 µM of inhibitors (PF-429242 and TPCK) or 3 µM of E-64 in Tris-buffered pH 8. Substrate ABZ-V-F-R-S-L-K-Q EDDnp was used, which was provided by Dr. Luiz Juliano Neto from the Department of Biophysics of UNIFESP-EPM and is described in Alves, L.C. et al.. The lysate was prepared with promastigotes in stationary phase of growth, washed three times with PBS pH 7.2, and in the last wash it was resuspended in Tris-buffered pH 8 with 1% NP40. The parasites were submitted to five rapid freeze–thaw cycles in liquid nitrogen. The lysate was centrifuged at 20,000g for 10 min at […]. The supernatant was stored at −20 °C until use. The read was carried out using the spectrofluorimeter SoftMax M3 with excitation/emission of 320/420 nm.

Data set [11] concerns L. amazonensis in peritoneal macrophages prestimulated with IFN-γ. As to the kind of experiment: Promastigote pretreatment and infection of macrophages prestimulated with IFN-γ. The data set is classed as cell-based, Leishmania amazonensis. Conditions: macrophages prestimulated with 0.5 ng/mL IFN-γ overnight; promastigotes pretreated 1 h. Here is the method: as §1
In data set [12] the test system is NO production by host macrophages. As to the kind of experiment: Determination of nitric oxide (NO) levels (Griess method). The data set is classed as cell-based, BALB/c mice. Conditions: supernatant of macrophages infected with promastigotes pretreated for 1 h. As to the method:
Supernatant from cultures of L. amazonensis-infected macrophages, in which promastigotes were pretreated or not with PF-429242 or TPCK, was collected, and NO levels were determined by the Griess method. NO levels were determined in aliquots of 50 µL of the supernatant, to which 50 µL of the Griess reagent were added (Griess Reagent: 1% sulfanilamide in 2.5% of H3PO4 + 0.1% N-1-diidrocloride naftiletilenodiamine in 2.5% H3PO4), in a 96-well microplate. Nitrite content was quantified by comparison with a sodium nitrite standard curve. The absorbance was measured at 540 nm using a spectrophotometer (Multiskan EX, Thermo Electron Corporation, Vantaa, Finland). The assays were carried out in duplicate and three independent experiments were realized. Macrophages prestimulated with 0.5 ng/mL IFN-γ overnight and infected with L. amazonensis promastigotes without pretreatment were used as positive controls.

The test system of data set [13] is peritoneal macrophages from BALB/c mice. Set-up: method as in PMID 35678670, PMID 33584607, PMID 35890269. Conditions: 72 h of incubation; previously published data (*); cited from earlier work.
For data set [14], the system named is Leishmania amazonensis-WT promastigotes. Set-up: method as in PMID 35678670, PMID 33584607, PMID 35890269. Conditions: 72 h of incubation; previously published data (*); read-out: Antileishmanial effect in Leishmania amazonensis IC50 Promastigote; cited from earlier work.
Data set [15] has as its system L. amazonensis (RFP) amastigotes. Further details: method as in PMID 35678670, PMID 33584607, PMID 35890269. As to conditions: 72 h of incubation; previously published data (*); read-out: Antileishmanial effect in Leishmania amazonensis IC50 Amastigote; cited from earlier work.
Data set [16] concerns L. amazonensis promastigotes and amastigotes. Conditions: different strains of L. amazonensis; cited from earlier work.

Take `C[C@@H]1[C@H](O)[C@@H](C)/C=C/C=C/C=C/C=C/C=C/C=C/C=C/[C@H](O[C@@H]2O[C@H](C)[C@@H](O)[C@H](N)[C@@H]2O)C[C@@H]2O[C@](O)(C[C@@H](O)C[C@@H](O)[C@H](O)CC[C@@H](O)C[C@@H](O)CC(=O)O[C@H]1C)C[C@H](O)[C@H]2C(=O)O` [AMB, Amphotericin B]: the CC50 at 72 h in [1] (peritoneal macrophages, 72 h of incubation, MTT, interval in brackets, read-out: Peritoneal macrophages CC50) was found to be 21.8 µM. The IC50 in data set [2] was found to be 0.12 µM.

In data set [1], `N=C(N)c1ccccc1` [Benzamidine, benzamidine] had a CC50 at 72 h of 240 µM. In addition, the concentration for half-maximal inhibition (IC50) in data set [2] and in data set [3] was over 200 µM in each case. In addition, the “viability of promastigotes after 1 h of treatment, compared with the control” value in data set [4] is “did not change the viability”. Further, the “entry of promastigotes into macrophages” value in data set [5] was “did not change the entry”. Further, the “permanence and survival of amastigotes within host cells” value in [5] (promastigotes pretreated 1 h with 200 µM or 6.25 µM, up to 72 h) was “did not alter the permanence and survival”. In data set [6], the “viability of L. amazonensis promastigotes” value was “reduced the viability”. Moreover, the “inhibition of the proteolytic activity” value in [7] (1 mM) is reported as 72%. The “cell viability of L. donovani promastigotes” value in data set [8] is listed as “reduced the cell viability”. The “intracellular survival of the parasites (ranking of inhibitors)” value in [9] is “most reduced the intracellular survival”.

With `CC(C)C[C@H](NC(=O)[C@H]1O[C@@H]1C(=O)O)C(=O)NCCCCN=C(N)N` [E-64], the “enzymatic activity on serine protease substrate” value in data set [10] (3 µM) is recorded as “no impact on the activity”.

As to PF-429242, the “viability of promastigotes after 1 h of treatment, compared with the control” value in [4] is “not able to change cell viability”. Moreover, in data set [5] (pretreated parasites (PF-429242 3.2 µM, TPCK 30 µM)), the “conversion of promastigotes into amastigotes” value is recorded as “no difficulty was observed in conversion”. Further, the “number of intracellular amastigotes (Giemsa, Supplementary Fig. 1)” value in data set [5] (pretreatment with PF-429242 3.2 µM or TPCK 30 µM, 48 h and 72 h after infection) was “reduction in the number of amastigotes”. Further, the “entry of promastigotes into macrophages” value in [5] is reported as “did not alter the entry”. The “survival of parasites within macrophages compared with the control” value in data set [5] (promastigotes pretreated 1 h with 3.2 µM, 1.6 µM or 0.8 µM, 48 h and 72 h after infection) is on record as “reduced survival”. Moreover, the “intracellular survival of L. amazonensis” value in data set [11] is “impairs the intracellular survival”. The “NO production versus control group” value in [12] is listed as “no difference in NO production”. Besides, the “enzymatic activity of L. amazonensis serine proteases” value in data set [10] (2.5 µM inhibitor) was “able to inhibit the enzymatic activity”. For the same compound, the CC50 in [13] is 189 µM. In addition, the concentration for half-maximal inhibition (IC50) in data set [14] was 0.83 µM; in data set [15], 120 µM. Moreover, in data set [16], the growth of promastigotes entry was “inhibition of the growth of promastigotes”.

For aprotinin, the “inhibition of the proteolytic activity” value in data set [7] (1 µM) was 100%. Further, the “cell viability of L. donovani promastigotes” value in data set [8] is “reduced the cell viability”. For the same compound, the “intracellular survival of the parasites (ranking of inhibitors)” value in data set [9] is reported as “most reduced the intracellular survival”.

A word on the IC50: it is the concentration that gives 50% inhibition.
